We go through 9 compounds from US11530229B2, “Cyano cyclobutyl compounds for CBL-B inhibition and uses thereof” (Nurix Therapeutics, Inc., priority 2019, dated 2022).

Assay [1] deals with primary human total T-cells. Description: T-cell activation, IL-2 secretion, Biological Example 2. It is filed as cell-based. To be noted: 48 hours, fold change over baseline; for fold induction at 0.3 µM: 0.3 μM inhibitor; for fold induction at 1 µM: 1 μM inhibitor; for fold induction at 3 µM: 3 μM inhibitor.
The target in another assay is Cbl-b (Homo sapiens (Human), UniProt Q13191). Description: Cbl-b displacement assay (Cbl-b inhibition assay), Biological Example 1. The class given is binding. The method, then:
Candidate compounds were evaluated for their ability to bind and inhibit Cbl-b, an E3 ubiquitin-protein ligase, as evidenced by their ability to displace a fluorophore-labeled probe (Example 59) bound to Cbl-b.
The ability of candidate compounds to displace a known inhibitor and thereby inhibit Cbl-b activity was measured by monitoring the interaction of Cbl-b with a fluorophore-labeled probe in the presence of the candidate compound. A truncated variant of Cbl-b (UniProt number Q13191; SEQ ID NO:1) containing an Avitag at its N-terminus was co-expressed with BirA biotin ligase and purified using a standard protocol (see Dou et al., Nature Structural and Molecular Biology, 8: 982-987, 2013; Avidity LLC).
Cbl-b Amino Acid Residues 36-427:
Fluorescently-labeled inhibitor probe was synthesized and tagged with BODIPY FL (Example 59). Cbl-b displacement assays were performed in a 384-well plate at room temperature in a 10 μL reaction volume by pre-incubating 0.5 nM Cbl-b or 0.125 nM Cbl-b (final concentration, indicated as “High” and “Low”, respectively) in an assay buffer containing 20 mM HEPES pH 7.5, 150 mM NaCl, 0.01% Triton X-100, 0.01% BSA and 0.5 mM TCEP in the presence of a candidate compound in 1% DMSO (final concentration) for 1 hour. After incubation in the presence of the candidate compound, the plate was incubated for an additional 1 hour in the presence of an approximate EC40 binding saturation consisting of 150 nM fluorescently-labeled inhibitor probe and 2 nM Streptavidin-Terbium (Cisbio) (final concentrations). Following the 1 hour incubation, the plates were read for TR-FRET signal at […] using an Envision plate reader (Perkin Elmer).

Assay [2] has as its system primary human total T-cells. Description: T-cell activation, CD25 surface staining, Biological Example 2. The class given is cell-based. The conditions noted are these: 48 hours, fold change over baseline; for fold induction at 0.3 µM: 0.3 μM inhibitor; for fold induction at 1 µM: 1 μM inhibitor; for fold induction at 3 µM: 3 μM inhibitor.
Where [3] appears, read: anti-CD3 and anti-CD28 co-stimulation.
[4] abbreviates: anti-CD3 and anti-CD28 co-stimulation, read-out: IL-2 secretion CD3/CD28 1 μM.
Setting [5] is: anti-CD3 stimulation alone, read-out: IL-2 secretion CD3 1 μM.
[6] abbreviates: 0.125 nM Cbl-b final concentration (Low), read-out: Cbl-b activity IC50 (Low).
The mark [7] stands for this setting: read-out: IC50 values in the Cbl-b inhibition assay of Biological Example 1.
Where [8] appears, read: anti-CD3 and anti-CD28 co-stimulation, read-out: CD25 staining CD3/CD28 1 μM.
Where [9] appears, read: anti-CD3 stimulation alone, read-out: CD25 staining CD3 1 μM.

Where two headings read alike, the source gives them in different places.

Sequence of Cbl-b (Q13191 36-427): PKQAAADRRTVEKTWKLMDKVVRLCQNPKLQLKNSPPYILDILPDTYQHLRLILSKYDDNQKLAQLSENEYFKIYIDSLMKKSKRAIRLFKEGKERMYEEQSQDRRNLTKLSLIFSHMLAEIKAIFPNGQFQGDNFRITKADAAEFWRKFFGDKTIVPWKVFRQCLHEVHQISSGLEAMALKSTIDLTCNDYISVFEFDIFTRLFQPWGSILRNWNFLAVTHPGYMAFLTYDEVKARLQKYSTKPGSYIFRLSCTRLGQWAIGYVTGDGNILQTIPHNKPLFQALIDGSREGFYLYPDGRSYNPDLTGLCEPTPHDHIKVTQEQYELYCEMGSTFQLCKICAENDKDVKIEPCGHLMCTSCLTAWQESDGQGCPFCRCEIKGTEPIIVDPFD

One may read the IC50 as the concentration at which inhibition is half-maximal. In the case of `Cn1cnnc1C[C@]1(c2cccc(N3Cc4c(cc(CNC5CC6C(C5)C6(F)F)cc4C(F)(F)F)C3=O)c2)C[C@H](C#N)C1` (some centres unmarked) [Compound 12, (1r,3r)-3-(3-(6-(((6,6-difluorobicyclo[3.1.0]hexan-3-yl)amino)methyl)-1-oxo-4-(trifluoromethyl)isoindolin-2-yl)phenyl)-3-((4-methyl-4H-1,2,4-triazol-3-yl)methyl)cyclobutane-1-carbonitrile], the fold induction at 0.3 µM was in the range of 15 to 20 in assay [1] (setting [3]) and 1.24 to 1.39 in assay [2] (setting [3]). The fold induction at 1 µM in assay [1] (setting [4]) was 15 to 20; in assay [1] (setting [5]), more than 0.85; in assay [2] (setting [8]), 1.24 to 1.39; in assay [2] (setting [9]) it was 1 to 1.15. In addition, the figures for the fold induction at 3 µM in assay [1] (anti-CD3 stimulation alone) and in assay [2] (anti-CD3 stimulation alone) were 0.4 to 0.85 and 1 to 1.15, respectively. The IC50 at Cbl-b (setting [6]) and on Cbl-b (setting [7]) was less than 1 nM in each case.

As to `CC1CCCN(Cc2cc3c(c(C(F)(F)F)c2)CN(c2cccc([C@]4(Cc5nncn5C)C[C@@H](C#N)C4)c2)C3=O)CC1` (some centres unmarked) [Compound 13, (1r,3r)-3-((4-methyl-4H-1,2,4-triazol-3-yl)methyl)-3-(3-(6-((4-methylazepan-1-yl)methyl)-1-oxo-4-(trifluoromethyl)isoindolin-2-yl)phenyl)cyclobutane-1-carbonitrile], the figures for the fold induction at 0.3 µM in assay [1] (setting [3]) and in assay [2] (setting [3]) were 15 to 20 and 1.24 to 1.39, respectively. Besides, the fold induction at 1 µM was 15 to 20 in assay [1] (setting [4]), 0.4 to 0.85 in assay [1] (setting [5]), 1.24 to 1.39 in assay [2] (setting [8]) and more than 1.15 in assay [2] (setting [9]). In addition, the fold induction at 3 µM was 0.4 to 0.85 in assay [1] (anti-CD3 stimulation alone) and 1 to 1.15 in assay [2] (anti-CD3 stimulation alone). Besides, the IC50 on Cbl-b (setting [6]) was in the range of 2 to 5 nM.

`Cn1cnnc1C[C@]1(c2cccc(N3Cc4c(cc(CN5CCC[C@H](C(F)(F)F)C5)cc4C(F)(F)F)C3=O)c2)C[C@H](C#N)C1` [Compound 14, (1R,3r)-3-((4-methyl-4H-1,2,4-triazol-3-yl)methyl)-3-(3-(1-oxo-4-(trifluoromethyl)-6-(((S)-3-(trifluoromethyl)piperidin-1-yl)methyl)isoindolin-2-yl)phenyl)cyclobutane-1-carbonitrile]: the figures for the fold induction at 0.3 µM in assay [1] (setting [3]) and in assay [2] (setting [3]) were 15 to 20 and not above 1.24, respectively. The fold induction at 1 µM in assay [1] (setting [4]) was 15 to 20; in assay [1] (setting [5]), 0.4 to 0.85; in assay [2] (setting [8]), not above 1.24; in assay [2] (setting [9]), not above 1. Besides, the fold induction at 3 µM in assay [1] (anti-CD3 stimulation alone) is 0.4 to 0.85; in assay [2] (anti-CD3 stimulation alone), not above 1. In addition, the IC50 at Cbl-b (setting [6]) lay within 2 to 5 nM.

`C[C@@H]1CN(Cc2cc3c(c(C(F)(F)F)c2)CN(c2cccc([C@]4(Cc5nncn5C)C[C@@H](C#N)C4)c2)C3=O)C[C@H](C)O1` [Compound 15, (1R,3r)-3-(3-(6-(((2R,6S)-2,6-dimethylmorpholino)methyl)-1-oxo-4-(trifluoromethyl)isoindolin-2-yl)phenyl)-3-((4-methyl-4H-1,2,4-triazol-3-yl)methyl)cyclobutane-1-carbonitrile]: the fold induction at 0.3 µM is not above 15 in assay [1] (setting [3]) and 1.24 to 1.39 in assay [2] (setting [3]). The fold induction at 1 µM lay within 15 to 20 in assay [1] (setting [4]), 0.4 to 0.85 in assay [1] (setting [5]), 1.24 to 1.39 in assay [2] (setting [8]) and 1 to 1.15 in assay [2] (setting [9]). The values for the fold induction at 3 µM in assay [1] (anti-CD3 stimulation alone) and in assay [2] (anti-CD3 stimulation alone) were more than 0.85 and 1 to 1.15, respectively. For the same compound, at Cbl-b (setting [6]), the half-maximal inhibitory concentration (IC50) lay within 2 to 5 nM.

Consider `Cn1cnnc1C[C@]1(c2cccc(N3Cc4c(cc(CN5CCO[C@H](C(F)(F)F)C5)cc4C(F)(F)F)C3=O)c2)C[C@H](C#N)C1` [Compound 16, (1S,3r)-3-((4-methyl-4H-1,2,4-triazol-3-yl)methyl)-3-(3-(1-oxo-4-(trifluoromethyl)-6-(((S)-2-(trifluoromethyl)morpholino)methyl)isoindolin-2-yl)phenyl)cyclobutane-1-carbonitrile], for which the fold induction at 0.3 µM in assay [1] (setting [3]) was not above 15; in assay [2] (setting [3]), 1.24 to 1.39. Also, the fold induction at 1 µM in assay [1] (setting [4]) lay within 15 to 20; in assay [1] (setting [5]), 0.4 to 0.85; in assay [2] (setting [8]) it was 1.24 to 1.39; in assay [2] (setting [9]), 1 to 1.15. Further, the results for the fold induction at 3 µM in assay [1] (anti-CD3 stimulation alone) and in assay [2] (anti-CD3 stimulation alone) were more than 0.85 and not above 1, respectively. Further, the half-maximal inhibitory concentration (IC50) on Cbl-b (setting [6]) and on Cbl-b (setting [7]) was 1 to 2 nM throughout.

For `Cn1cnnc1C[C@]1(c2cccc(N3Cc4c(cc(CN5CCCC(F)(F)CC5)cc4C(F)(F)F)C3=O)c2)C[C@H](C#N)C1` [Compound 17, (1r,3r)-3-(3-(6-((4,4-difluoroazepan-1-yl)methyl)-1-oxo-4-(trifluoromethyl)isoindolin-2-yl)phenyl)-3-((4-methyl-4H-1,2,4-triazol-3-yl)methyl)cyclobutane-1-carbonitrile], the results for the fold induction at 0.3 µM in assay [1] (setting [3]) and in assay [2] (setting [3]) were 15 to 20 and 1.24 to 1.39, respectively. Besides, the fold induction at 1 µM was more than 20 in assay [1] (setting [4]), 0.4 to 0.85 in assay [1] (setting [5]), 1.24 to 1.39 in assay [2] (setting [8]) and 1 to 1.15 in assay [2] (setting [9]). For the same compound, the results for the fold induction at 3 µM in assay [1] (anti-CD3 stimulation alone) and in assay [2] (anti-CD3 stimulation alone) were 0.4 to 0.85 and not above 1, respectively. For the same compound, the IC50 at Cbl-b (setting [6]) and on Cbl-b (setting [7]) was 1 to 2 nM in each case.

In the case of `C[C@@H]1C[C@H](C)CN(Cc2cc3c(c(C(F)(F)F)c2)CN(c2cccc([C@]4(Cc5nncn5C)C[C@@H](C#N)C4)c2)C3=O)C1` [Compound 18, (1R,3r)-3-(3-(6-(((3S,5R)-3,5-dimethylpiperidin-1-yl)methyl)-1-oxo-4-(trifluoromethyl)isoindolin-2-yl)phenyl)-3-((4-methyl-4H-1,2,4-triazol-3-yl)methyl)cyclobutane-1-carbonitrile], the figures for the fold induction at 0.3 µM in assay [1] (setting [3]) and in assay [2] (setting [3]) were more than 20 and 1.24 to 1.39, respectively. For the same compound, the fold induction at 1 µM was more than 20 in assay [1] (setting [4]), more than 0.85 in assay [1] (setting [5]), 1.24 to 1.39 in assay [2] (setting [8]) and 1 to 1.15 in assay [2] (setting [9]). The fold induction at 3 µM in assay [1] (anti-CD3 stimulation alone) is more than 0.85; in assay [2] (anti-CD3 stimulation alone) it was not above 1. Further, the half-inhibitory concentration (IC50) at Cbl-b (setting [6]) was less than 1 nM.

Take `CN(Cc1cc2c(c(C(F)(F)F)c1)CN(c1cccc([C@]3(Cc4nncn4C)C[C@@H](C#N)C3)c1)C2=O)C1CC(F)(F)C1` [Compound 22, (1r,3r)-3-(3-(6-(((3,3-difluorocyclobutyl)(methyl)amino)methyl)-1-oxo-4-(trifluoromethyl)isoindolin-2-yl)phenyl)-3-((4-methyl-4H-1,2,4-triazol-3-yl)methyl)cyclobutane-1-carbonitrile]: the fold induction at 0.3 µM in assay [1] (setting [3]) was not above 15; in assay [2] (setting [3]) it was more than 1.39. The fold induction at 1 µM in assay [1] (setting [4]) is not above 15; in assay [1] (setting [5]), 0.4 to 0.85; in assay [2] (setting [8]) it was more than 1.39; in assay [2] (setting [9]) it was 1 to 1.15. For the same compound, the fold induction at 3 µM in assay [1] (anti-CD3 stimulation alone) lay in the range of 0.4 to 0.85; in assay [2] (anti-CD3 stimulation alone), 1 to 1.15. Further, the 50% inhibitory concentration (IC50) at Cbl-b (setting [6]) and on Cbl-b (setting [7]) was 2 to 5 nM each time.

Consider `Cn1cnnc1C[C@]1(c2cccc(N3Cc4c(cc(CNC5CC6(C5)CC6(F)F)cc4C(F)(F)F)C3=O)c2)C[C@H](C#N)C1` (some centres unmarked) [Compound 23, (1r,3r)-3-(3-(6-(((1,1-difluorospiro[2.3]hexan-5-yl)amino)methyl)-1-oxo-4-(trifluoromethyl)isoindolin-2-yl)phenyl)-3-((4-methyl-4H-1,2,4-triazol-3-yl)methyl)cyclobutane-1-carbonitrile], for which the fold induction at 0.3 µM in assay [1] (setting [3]) was in the range of 15 to 20; in assay [2] (setting [3]), 1.24 to 1.39. Also, the fold induction at 1 µM in assay [1] (setting [4]) lay in the range of 15 to 20; in assay [1] (setting [5]), 0.4 to 0.85; in assay [2] (setting [8]) it was 1.24 to 1.39; in assay [2] (setting [9]) it was 1 to 1.15. Also, the fold induction at 3 µM in assay [1] (anti-CD3 stimulation alone) is 0.4 to 0.85; in assay [2] (anti-CD3 stimulation alone) it was 1 to 1.15. For the same compound, the half-inhibitory concentration (IC50) on Cbl-b (setting [6]) and on Cbl-b (setting [7]) was 1 to 2 nM throughout.
